From US5126258A (priority 1988, dated 1992)
Converted amounts (≈) assume the structure as drawn. Read-outs that look alike come from different tables or passages of the source.

Key:
Monoclonal Receptor 37G2 = experiment: Kinetics of hydrolysis by receptor 37G2; type: biochemical, mouse; details: inhibitor Compound 12i (100 and 300 nM), substrate Compound 17; figure = Ki × 10^7
Text: (§1) Reaction kinetics were studied using three reactant ligands as substrates for monoclonal receptors 37G2 and 22F5. Data from initial rates were consistent with Michaelis-Menten reaction mechanism for a usual enzyme-substrate system. Initial rates were followed using at 271 nm using a U.V.-visible spectorphotometer for Compound 17, and a fluorescence spectrometer for Compounds 5 and 20, using an excitation wavelength of 355 nm and an emission wavelength of 455 nm for both compounds.
Lineweaver-Burke plots for the catalyzed hydrolysis of Compounds 17, 5 and 20 obtained in the presence and absence of Compound 12i as inhibitor were prepared as discussed for FIG. 4. In particular, Compound 17 was present at concentrations of 1-16 uM with inhibitor concentrations of 100 and 300 nanomolar (nM). Compound 5 was present at concentrations of 1-10 uM with inhibitor concentrations of 100 and 200 nM. Compound 20 was present at concentrations of 2-20 uM with inhibitor concentrations of 25 and 100 nM. […]
(§2) 50 mM phosphate buffer at a pH value of 8.0. The reactant ligand was
(§3) dissolved in dioxane and admixed in the amounts discussed above. Two
(§4) milliliters of reaction solution were utilized as was a dioxane
concentration of 2 percent by volume. Assays with Compound 17 as reac tan
ligand utilized 500 nanomolar receptor (based on a molecular weight of
150,000 daltons) in the above buffer, using the reactant ligand dissolved
in dioxane and a total dioxane concentration of 2 percent by volume.

Monoclonal Receptor 22F5 = experiment: Kinetics of hydrolysis by receptor 22F5; type: biochemical, mouse; details: figure = Ki × 10^7
Text: as §1
Lineweaver-Burke plots for the catalyzed hydrolysis of Compounds 17, 5 and 20 obtained in the presence and absence of Compound 12i as inhibitor were prepared as discussed for FIG. 4. In particular, Compound 17 was present at concentrations of 1-16 uM with inhibitor concentrations of 100 and 300 nanomolar (nM). Compound 5 was present at concentrations of 1-10 uM with inhibitor concentrations of 100 and 200 nM. Compound 20 was present at concentrations of 2-20 uM with inhibitor concentrations of 25 and 100 nM.
*Fluorescence assays using Compounds 20 and 5 were carried out in a
PerkinElmer fluorescence spectrophotometer (moded LS5; Oakbrook, IL) usin
200 nanomolar receptor (based on a molecular weight of 150,000 daltons) i
as §2, §3, §4
concentration of 2 percent by volume. […]

[1] = tested on: monoclonal antibody P3 6D4; experiment: Ester hydrolysis by monoclonal antibody P3 6D4, HPLC; type: biochemical, mouse; details: for t1/2 Antibody (P3 6D4): 5 micromolar substrate, 0.1 micromolar antibody, 50 mM phosphate pH 8.0, 25 C; for accelerated hydrolysis by P3 6D4 (substrate acceptance): pH 8.0
Method: FIG. 3 illustrates the rate of hydrolysis of a carboxylic ester (Compound 7) determined by HPLC under the conditions described in Table 1 (50 mM phosphate buffer at pH 8.0 and 23 degrees C). ( ) Uncatalyzed (background)rate of hydrolysis. (.quadrature.) Effect of 0.5 micromolar non-specific monoclonal IgG. ( ) 0.1 Micromolar anti-Compound 4 monoclonal antibody from hybridoma P3 6D4. The superimposed curve represents a theoretical exponential decay which fits the data points.
(§5) In particular, an exemplary monoclonal receptor was produced by the standard hybridoma technology of Kohler et al., Nature, 256, 495 (1975). Specifically, female 129G1X^+ mice were immunized by intraperitoneal injection with an inoculum of 100 micrograms of conjugate (e.g., Compound 4i bound to KLH) in 300 microliters of a 1:1 mixture of phosphate buffered saline (PBS) pH 7.4 and complete Freund's adjuvant. Two weeks later, the mice were again injected in a like manner with 50 micrograms of the foregoing conjugate in 300 microliters of a 1:1 mixture of PBS (pH 7.4) and 10 mg/ml alum. After an additional eight weeks, the mice were immunized intravenously with 50 micrograms of the conjugate in 200 microliters of PBS (pH 7.4). The spleens were removed from the mice 4 days later, and the spleen cells were fused to myeloma cells.
(§6) The lack of spectroscopic distinction between such esters and their hydrolysis products recommended a chromatographic analysis of the process. Referring to FIG. 3, a mixture of Compound 7 (5 uM) and the monoclonal antibody from hybridoma P3 6D4 (0.1 uM) in phosphate buffer (50 mM, pH 8.0) was analyzed over time by high performance liquid chromatography (HPLC). The accelerated hydrolysis of the ester was apparent from the decrease of its peak and the concurrent increase in two new peaks that correspond with the expected products. Under these conditions, the ester is completely consumed in 60-80 minutes during which time the background rate accounts for about 12 to 16 percent hydrolysis. The chromatographic profile is the same as that produced by treatment with hog liver esterase.
(§7) *Hydrolysis of carboxylic esters by monoclonal antibody (from hybridoma P
(§8) 6D4) and by hog liver esterase (Sigma Chemical Co., St. Louis, MO, EC
(§9) 3.1.1.1) determined by HPLC on an analytical RPC18 column (Vydac 218TP54)
(§10) with isocratic elution [acetonitrile: water plus 0.1 percent
(§11) trifluoroacetic acid; (35:65)] at a flow rate of 1.0 ml/min and the
(§12) detector set at 245 nm. The initial substrate concentration was 5
(§13) micromolar and that the internal standard (acetophenone) was 10 microm
(§14) olar in 50 mM phosphate buffer at pH 8.0. The retention times (minutes)
(§15) were as follows: acetophenone, 5.0; Compound 7, 8.3; Compound 8, 6.7;
(§16) Compound 9, 4.1; Compound 10, 11.1 (40 percent acetonitrile elution);
(§17) Compound 11, 8.2. The antibody concentration was 15 micrograms/ml (0.1
(§18) micromolar) and that of esterase was 5.5 micrograms/ml. The reaction
(§19) mixtures were kept at 25 degrees C. and aliquots were analyzed at
(§20) intervals of 2 to 20 minutes. Three or more determinations were used to
(§21) plot a curve from which the halflife of the reaction is estimated (see

hog liver esterase = type: biochemical; details: pig, 5 µM, pH 8
Method: as §6, §7, §8, §9, §10, §11, §12, §13, §14, §15, §16, §17, §18, §19, §20, §21

[2] = Spontaneous (uncatalyzed, background) hydrolysis; type: physicochemical; details: spectrophotometric at 245 nm, initial rates at five ester concentrations; figure = k × 10^5
Procedure, shortened: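 Background (uncatalyzed) hydrolysis of ester substrates measured in 50 mM phosphate buffer, pH 8.0, without antibody, as percentage of reactant consumed over the stated period. Quantified by C18 HPLC (acetonitrile/water with 0.1% trichloroacetic acid); Compounds 5 and 20 followed by fluorescence (ex 355 nm, em 455 nm).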

[3] = tested on: monoclonal antibody P3 6D4; experiment: Kinetics and inhibition of catalytic ester hydrolysis by monoclonal antibody P3 6D4, spectrophotometric at 245 nm; type: biochemical, mouse; details: for Km / Vmax / kcat: 50 mM phosphate pH 8.0, 25 C; for Km / Vmax: 100 nM IgG; for Km: figure = Km × 10^6; for Vmax: figure = Vmax × 10^9; for kcat: printed figure = kcat × 10^2; for kcat/kuncat: pH 8.0; for acceleration above the background rate: pH 8.0, corrected for background hydrolysis rate
Method: FIG. 4 illustrates a Lineweaver-Burk plot for the hydrolysis of Compound 7 by anti-Compound 4 monoclonal antibody from hybridoma P3 6D4. Velocities were determined spectrophotometrically by measuring initial rates during the first linear portion of the reaction as described with reference to Table 2. The substrate concentrations were corrected for amounts consumed during initial equilibration. ( ) No inhibitor present. ( ) Inhibited by 50 nM phosphonate (Compound 3). ( ) Inhibited by 100 nM phosphonate (Compound 3).
as §5
Reaction kinetics were measured spectrophotometrically by following the absorption change at 245 nanometers. […] Kinetic parameters obtained with these substrates are shown in Table 2 along with the inhibition constants obtained with phosphonate (Compound 3). Under these conditions, the acceleration above the background rate is about 960-fold for Compound 7 and about 200-fold for Compound 8 (corrected for the background hydrolysis rate).
*The kinetic parameters shown in Table 2 are for the hydrolysis of esters
(Compounds 7 and 8) by monoclonal antibody P3 6D4. A PerkinElmer lambda 4
spectrophotometer, equipped with thermostatted cell holder, was used to
measure absorption changes at 245 nm. Cells containing the substrate at
concentrations of 0.5 to 50 micromolar in phosphate buffer (50 mM, pH 8.0
were preequilibrated at 25 degrees C. The concentration of active IgG in
stock solution was found by reacting with the coumarin ester (Compound 5)
and measuring the yield of hydroxycoumarin by fluorescence. The kinetic
run was initiated by addition of an aliquot of the antibody stock solutio
(in 50 mM phosphate buffer, pH 8.0) calculated to give 100 nM IgG. The
mixture was allowed to equilibrate for 2 to 3 minutes and the rate was
then measured during the subsequent 10 minutes. The absorption change for
complete hydrolysis was determined by treatment with esterase. Kinetic
parameters were obtained from L ineweaverBurk plots (see FIG. 4).
Inhibition constants were determined from a plot of the slopes with at
least four inhibitor concentrations of Compound 3. The data were analyzed

Solubility = type: physicochemical; details: aqueous buffer
[4] = tested on: monoclonal receptor P3 6D4; experiment: Stoichiometric transacylation reaction of monoclonal receptor P3 6D4 with coumarin ester Compound 5 (fluorescence) and its inhibition/inactivation; type: biochemical, mouse
Procedure, shortened: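 Antibody P3 6D4 (100 nM final) reacted at 23 °C with coumarin ester 5 in Tris-HCl or phosphate buffer (50 mM, pH 4–9), followed by fluorescence (ex 355/em 455 nm). Initial rates corrected for spontaneous hydrolysis; kinetic parameters from hyperbolic and double-reciprocal fits, Ki from Lineweaver-Burk with ≥5 inhibitor concentrations.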

P2 50D8 = experiment: Catalytic hydrolysis by receptor P2 50D8; type: biochemical, mouse
Method: (§22) Two further catalytic monoclonal receptors were similarly prepared by another fusion using Compound 2i linked to an antigenic carrier as immunogen. Those two catalytic receptor molecules and their hybridomas were designated "P2 50D8" and "P2 57G4".
(§23) In one study, twenty-eight monoclonal anti-hapten antibodies to phosphonate 2i from two separate fusion experiments were assayed. […] Antibodies to Compound 4i as hapten were assayed in the same manner. Twelve gamma-globulins were screened as described above. Compound 5 is homologous only in the acyl portion of this larger hapten; however, all but three of these cross-reacted with smaller phosphonate 2 in an ELISA assay as described herein. For two of these there was observed a fluorescence change, occurring in the first 5 minutes of incubation, which corresponds to about 50 percent of that for complete hydrolysis. The background rate of hydrolysis was reestablished after this initial reaction leveled off.

P2 57G4 = experiment: Catalytic hydrolysis by receptor P2 57G4; type: biochemical, mouse
Method: as §22, §23

Compound: COC(=O)c1cccc(C(=O)NCc2cc(NC(=O)CCCCC(=O)ON3C(=O)CCC3=O)ccc2OP(=O)(O)Cc2ccc(NC(=O)C(F)(F)F)cc2)n1 [Compound 4i]
- hydrolytic stability (NHS group) (Chemical stability; store at zero degrees C in a dessicator): prone to hydrolysis

Compound: Cc1ccc2cccc(NP(=O)(O)Cc3ccc(NC(=O)C(F)(F)F)cc3)c2n1 [Compound 12i]
- Ki (Monoclonal Receptor 37G2): 0.14 µM
- Ki (Monoclonal Receptor 22F5; inhibitor Compound 12i (25 and 100 nM), substrate Compound 20): 0.07 µM
- Ki (Monoclonal Receptor 22F5; inhibitor Compound 12i (100 and 200 nM), substrate Compound 5): 0.11 µM
- stability (Chemical stability; pH 3.5-7.3, room temperature): at least 11 days

Compound: CC(=O)Nc1ccc(OC(=O)Cc2ccc(NC(=O)C(F)(F)F)cc2)cc1 [Compound 7]
- time to complete consumption of ester ([1]; 5 uM Compound 7, 0.1 uM antibody P3 6D4, 50 mM phosphate pH 8.0): 60 to 80 min
- t1/2 Antibody (P3 6D4) [1]: 16 min
- t1/2 Esterase (hog liver esterase): 4 min
- kuncat [2]: 280000 s⁻¹
- Km [3]: 1.9 µM
- Vmax [3]: 0.132 µM/min
- kcat [3]: 0.027 s⁻¹
- kcat/kuncat [3]: 960
- acceleration above the background rate [3]: about 960 fold
- turn over of receptor with substrate ([3]; without noticeable inactivation): several hundred fold
- solubility (Solubility; read-out: concentration above which solutions become slightly turbid): 15 µM (≈ 5.7 µg/mL)

Compound: O=C(O)CCC(=O)Nc1ccc(OC(=O)Cc2ccc(NC(=O)C(F)(F)F)cc2)cc1 [Compound 8]
- t1/2 Antibody (P3 6D4) [1]: 60 min
- accelerated hydrolysis by P3 6D4 (substrate acceptance) [1]: somewhat slower rate
- t1/2 Esterase (hog liver esterase): 52 min
- Km [3]: 0.62 µM
- Vmax [3]: 0.06 µM/min
- kcat [3]: 0.008 s⁻¹
- kcat/kuncat [3]: 210
- acceleration above the background rate [3]: about 200 fold
- inactivation of receptor [4]: loss of activity
- solubility (Solubility; 50 mm phosphate buffer, phosphate buffer 50 mM, pH 8.0, read-out: soluble up to concentration): ≥ 100 µM

Compound: CC(=O)Nc1ccc(CC(=O)Oc2ccc(NC(=O)C(F)(F)F)cc2)cc1 [Compound 11]
- accelerated hydrolysis by P3 6D4 (substrate acceptance) [1]: not manifested by the accelerated hydrolysis
- t1/2 Esterase (hog liver esterase): 5 min
- kuncat [2]: 610000 s⁻¹
- catalytic hydrolysis by P2 50D8 (P2 50D8): capable of catalytically hydrolyzing
- catalytic hydrolysis by P2 57G4 (P2 57G4): capable of catalytically hydrolyzing

Compound: Cc1ccc2cccc(NP(=O)(O)Cc3ccc(NC(=O)CCCC(=O)ON4C(=O)CCC4=O)cc3)c2n1 [Compound 13]
- decomposition (Chemical stability; pH 3.5 and 6.2): No signs of decomposition
- stability at zero degrees C (Chemical stability; zero degrees C, over 5 days): stable

Compound: CC(=O)Nc1ccc(CC(=O)Oc2ccc(NC(C)=O)cc2)cc1 [Compound 9]
- accelerated hydrolysis by P3 6D4 (substrate acceptance) [1]: not accepted as substrates
- t1/2 Esterase (hog liver esterase): 4 min
- kuncat [2]: 25000 s⁻¹
- catalytic hydrolysis by P2 50D8 (P2 50D8): capable of catalytically hydrolyzing
- catalytic hydrolysis by P2 57G4 (P2 57G4): capable of catalytically hydrolyzing
